The text below walks through data of patent publication US10338037B2, “Compounds and conjugates for identifying and separating post-translationally modified analytes” (UVic Industry Partnerships Inc., priority 2015, dated 2019).

What all share (format): binding
Experiment [1] has as its target T1, H3R2me2a peptide (Homo sapiens, UniProt P68431).
T1 construct: H3 1-7=H2N-ARTKQTAY-COOH; made in house; host or cells: chemical solid-phase peptide synthesis
In words: fluorescence indicator displacement assay, solution-phase affinity for H3R2me2a peptide. The following applies: for Kd: 10 mM phosphate buffer at pH 7.4, average of triplicate determinations, read-out: Solution-phase equilibrium dissociation constant (Kd), H3R2me2a. On the procedure: (§1) In this example, the activity of various compound embodiments described herein were evaluated. A calixarene parent compound and compounds 502 and 404 were evaluated. Compound 502 was used has an upper-rim aryl group attached via sulfonamide linkage, and also includes a distal carboxy group for conjugation to solid-phase supports. The solution-phase affinities of a calixarene parent compound, and compounds 502 and 404 were determined for various methyllysine and methylarginine containing peptides by fluorescence indicator displacement assay (Table 1).
(§2) All values were determined in 10 mM phosphate buffer at pH 7.4 and are averages of triplicate determinations by an indicator displacement assay.

Experiment [2] has as its target T2, H3K4me peptide (Homo sapiens, UniProt P68431).
T2 construct: H3 1-7=H2N-ARTKQTAY-COOH; made in house; host or cells: chemical solid-phase peptide synthesis
In words: fluorescence indicator displacement assay, solution-phase affinity for H3K4me peptide. The following applies: 10 mM phosphate buffer at pH 7.4, average of triplicate determinations, read-out: Solution-phase equilibrium dissociation constant (Kd), H3K4me. As for the experimental part:
as §1, §2

In experiment [3] the target is T3, H3K4me3 peptide.
T3 construct: other: solution phase, indicator displacement assay; fused on or other part: C-terminal Tyr added to read concentration by A280; trimethyl-lysine (a PTM)
Briefly: fluorescence indicator displacement assay, solution-phase affinity for H3K4me3 peptide. As for the experimental part:
as §1, §2

Experiment [4] addresses T4, H3K4me2 peptide (Homo sapiens, UniProt P68431).
T4 construct: H3 1-7=H2N-ARTKQTAY-COOH; made in house; host or cells: chemical solid-phase peptide synthesis
Briefly: fluorescence indicator displacement assay, solution-phase affinity for H3K4me2 peptide. The following applies: for Kd: 10 mM phosphate buffer at pH 7.4, average of triplicate determinations, read-out: Solution-phase equilibrium dissociation constant (Kd), H3K4me2; for affinity for Kme2-containing peptides (in words): solution phase. As for the experimental part:
as §1, §2

The target in experiment [5] is T5, H3K4ac peptide (Homo sapiens, UniProt P68431).
T5 construct: H3 1-7=H2N-ARTKQTAY-COOH; made in house; host or cells: chemical solid-phase peptide synthesis
In words: fluorescence indicator displacement assay, solution-phase affinity for H3K4ac peptide. Particulars: for Kd: 10 mM phosphate buffer at pH 7.4, average of triplicate determinations, indicator displacement assay, read-out: Solution-phase equilibrium dissociation constant (Kd), H3K4ac; for binding to Kac containing peptides (in words): solution phase, relative to methylated peptides. As for the experimental part:
as §1, §2

Experiment [6] has as its target T6, H3K9me3 peptide (Homo sapiens, UniProt P68431).
T6 construct: H3 1-12=H2N-ARTKQTARKSTGY-COOH; made in house; host or cells: chemical solid-phase peptide synthesis
In words: fluorescence indicator displacement assay, solution-phase affinity for H3K9me3 peptide. The following applies: 10 mM phosphate buffer at pH 7.4, average of triplicate determinations, read-out: Solution-phase equilibrium dissociation constant (Kd), H3K9me3. On the procedure: as §1, §2

Experiment [7] deals with T7, H3K4 peptide (unmethylated) (Homo sapiens, UniProt P68431).
T7 construct: H3 1-7=H2N-ARTKQTAY-COOH; made in house; host or cells: chemical solid-phase peptide synthesis
Briefly: fluorescence indicator displacement assay, solution-phase affinity for H3K4 peptide. Particulars: for Kd: 10 mM phosphate buffer at pH 7.4, average of triplicate determinations, indicator displacement assay, read-out: Solution-phase equilibrium dissociation constant (Kd), H3K4; for binding to unmethylated controls (in words): solution phase, relative to methylated peptides. As for the experimental part:
as §1, §2

Experiment [8] concerns the target T8, H3R2me2s peptide (Homo sapiens, UniProt P68431).
T8 construct: H3 1-7=H2N-ARTKQTAY-COOH; made in house; host or cells: chemical solid-phase peptide synthesis
Briefly: fluorescence indicator displacement assay, solution-phase affinity for H3R2me2s peptide. The following applies: 10 mM phosphate buffer at pH 7.4, average of triplicate determinations, read-out: Solution-phase equilibrium dissociation constant (Kd), H3R2me2s. On the procedure:
as §1, §2

Structures are written as SMILES.

The term Kd denotes the constant that tells how readily two partners part at equilibrium. Consider `O=C(O)Cc1ccc(-c2cc3c(O)c(c2)Cc2cc(S(=O)(=O)O)cc(c2O)Cc2cc(S(=O)(=O)O)cc(c2O)Cc2cc(S(=O)(=O)O)cc(c2O)C3)cc1` [Compound 404, 5-(4-carboxymethylphenyl)-25, 26, 27, 28-tetrahydroxy-11-17-23-trisulfonatocalix[4]arene], for which the Kd in experiment [1] was 1 µM; in experiment [2] it was 2.3 µM; in experiment [4], 0.1 µM; in experiment [5], more than 1000 µM; in experiment [6], 1 µM; in experiment [7], 85.5 µM. Besides, the Kd in experiment [8] worked out at 6.62 µM. Also, the “affinity for Kme3-containing peptides (in words)” value in experiment [3] is reported as “sub-micromolar”. Moreover, in experiment [4], the “affinity for Kme2-containing peptides (in words)” value was “sub-micromolar”. The “binding to Kac containing peptides (in words)” value in experiment [5] is reported as “weaker binding”. The “binding to unmethylated controls (in words)” value in experiment [7] is recorded as “weaker binding”.

With `O=C(O)c1ccc(S(=O)(=O)Nc2cc3c(O)c(c2)Cc2cc(S(=O)(=O)O)cc(c2O)Cc2cc(S(=O)(=O)O)cc(c2O)Cc2cc(S(=O)(=O)O)cc(c2O)C3)cc1` [Compound 502, 5-(4-carboxyphenyl)sulfonamido-25, 26, 27, 28-tetrahydroxy-11-17-23-trisulfonatocalix[4]arene], the Kd came to 0.6 µM in experiment [1]; 1.3 µM in experiment [2]; 0.4 µM in experiment [4]; 7.6 µM in experiment [5]; 0.5 µM in experiment [6]; 3.8 µM in experiment [7]. For the same molecule, the Kd in experiment [8] amounted to 2.6 µM. The “affinity for aDMA-containing peptides (in words)” value in experiment [1] (solution phase) is “sub-micromolar”. Moreover, in experiment [3], the “affinity for Kme3-containing peptides (in words)” value was “sub-micromolar”. Moreover, the “affinity for Kme2-containing peptides (in words)” value in experiment [4] is on record as “sub-micromolar”. For the same molecule, the “binding to Kac containing peptides (in words)” value in experiment [5] is “weaker binding”. Besides, the “binding to unmethylated controls (in words)” value in experiment [7] was “weaker binding”.
